16 molecules from patent US10875876B2, “Cyclized sulfamoylarylamide derivatives and the use thereof as medicaments for the treatment of hepatitis B” (priority 2015, dated 2020) can be followed below.

The term EC50 denotes the concentration that produces a half-maximal response. For orientation: CC50 means the concentration that lowers cell viability or growth by half. A low value points to greater toxicity to the cells.

Data set [1] concerns HBV. Kind of data set: anti HBV activity, HepG2.117 cell line, intracellular HBV DNA by realtime PCR. In kind it is cell-based. Conditions: HepG2.117 cell line (Tet-off), 3 days of treatment, intracellular HBV DNA quantified by realtime PCR, read-out: HBV-AVE-HepG2.117 EC50. How it is done:
The anti HBV activity was measured using the HepG2.117 cell line, a stable, inducibly HBV producing cell line, which replicates HBV in the absence of doxicycline (Tet-off system). For the antiviral assay, HBV replication was induced, followed by a treatment with serially diluted compound in 96-well plates in duplicate. After 3 days of treatment, the antiviral activity was determined by quantification of intracellular HBV DNA using realtime PCR and an HBV specific primer set and probe.

Data set [2] in a line: Cytotoxicity in HepG2 cells, Resazurin assay. The conditions noted are these: human, HepG2 cells, TOX-HepG2-4 d CC50 (μM), HepG2 cells incubated for 4 days, viability by Resazurin assay.
Where [3] appears, read: Hepatitis B virus, HepG2.117, 72 h.

Where two headings read alike, the source gives them in different places. Some results are limits rather than exact numbers.

On to `Cn1cc2c(c1C(=O)Nc1ccc(F)c(C(F)F)c1)CCC(C(C)(C)O)NS2(=O)=O` (single isomer, unassigned) [Compound 150a, N-[3-(difluoromethyl)-4-fluoro-phenyl]-3-(1-hydroxy-1-methyl-ethyl)-7-methyl-1,1-dioxo-2,3,4,5-tetrahydropyrrolo[3,4-f]thiazepine-6-carboxamide], for which, in data set [1], the EC50 was more than 125 nM. This molecule also had a cytotoxic concentration (CC50) at 4 days in data set [2] of more than 25 µM.
Turning to `CC(NCC(F)(F)F)C1COc2c(cn(C)c2C(=O)Nc2ccc(F)c(C#N)c2)S(=O)(=O)N1` (single isomer, unassigned) [Compound 161a, N-(3-cyano-4-fluoro-phenyl)-7-methyl-1,1-dioxo-3-[1-(2,2,2-trifluoroethylamino)ethyl]-3,4-dihydro-2H-pyrrolo[3,4-b][1,4,5]oxathiazepine-6-carboxamide], the half-maximal effective concentration (EC50) in data set [1] amounted to 49 nM. The cytotoxic concentration (CC50) at 4 days in data set [2] was more than 25 µM.
For the molecule `Cc1cc(CC2(C)COc3c(cn(C)c3C(=O)Nc3ccc(F)c(F)c3)S(=O)(=O)N2)no1` (single isomer, unassigned) [Compound 162a, N-(3,4-difluorophenyl)-3,7-dimethyl-3-[(5-methylisoxazol-3-yl)methyl]-1,1-dioxo-2,4-dihydropyrrolo[3,4-b][1,4,5]oxathiazepine-6-carboxamide], in data set [1], the concentration for a half-maximal effect (EC50) is 33 nM. For the same molecule, the CC50 at 4 days in data set [2] was more than 25 µM.
With `Cc1cccc(CC2(C)COc3c(cn(C)c3C(=O)Nc3ccc(F)c(F)c3)S(=O)(=O)N2)n1` (single isomer, unassigned) [Compound 172a, N-(3,4-difluorophenyl)-3,7-dimethyl-3-[(6-methyl-2-pyridyl)methyl]-1,1-dioxo-2,4-dihydropyrrolo[3,4-b][1,4,5]oxathiazepine-6-carboxamide], the concentration for a half-maximal effect (EC50) in data set [1] (setting [3]) turned out to be 72 nM. The half-maximal cytotoxic concentration (CC50) at 4 days in data set [2] is more than 25 µM.
As to `Cc1cc(CC2(C)COc3c(cn(C)c3C(=O)Nc3ccc(F)c(F)c3)S(=O)(=O)N2)n(C)n1` (single isomer, unassigned) [Compound 175a, N-(3,4-difluorophenyl)-3-[(2,5-dimethylpyrazol-3-yl)methyl]-3,7-dimethyl-1,1-dioxo-2,4-dihydropyrrolo[3,4-b][1,4,5]oxathiazepine-6-carboxamide], the concentration giving a half-maximal response (EC50) in data set [1] was found to be 21 nM. Further, the CC50 at 4 days in data set [2] is more than 22.9 µM.
Take `Cc1cc(CC2(C)COc3c(cn(C)c3C(=O)Nc3ccc(F)c(C(F)F)c3)S(=O)(=O)N2)n(C)n1` (single isomer, unassigned) [Compound 176a, N-[3-(difluoromethyl)-4-fluoro-phenyl]-3-[(2,5-dimethylpyrazol-3-yl)methyl]-3,7-dimethyl-1,1-dioxo-2,4-dihydropyrrolo[3,4-b][1,4,5]oxathiazepine-6-carboxamide]: the EC50 in data set [1] (setting [3]) is 12 nM. In data set [2], this molecule displayed a CC50 at 4 days of more than 25 µM.
Turning to `Cn1cc2c(c1C(=O)Nc1ccc(F)c(F)c1)OCC(C)(Cc1cccnc1)NS2(=O)=O` (single isomer, unassigned) [Compound 199a, N-(3,4-difluorophenyl)-3,7-dimethyl-1,1-dioxo-3-(3-pyridylmethyl)-2,4-dihydropyrrolo[3,4-b][1,4,5]oxathiazepine-6-carboxamide], the EC50 in data set [1] is 30 nM. Moreover, the half-maximal cytotoxic concentration (CC50) at 4 days in data set [2] is more than 25 µM.
For `Cn1cc2c(c1C(=O)Nc1ccc(F)c(F)c1)OCC(C)(CO)NS2(=O)=O` (single isomer, unassigned) [Compound 203a, N-(3,4-difluorophenyl)-3-(hydroxymethyl)-3,7-dimethyl-1,1-dioxo-2,4-dihydropyrrolo[3,4-b][1,4,5]oxathiazepine-6-carboxamide], the EC50 in data set [1] (setting [3]) was 94 nM. The molecule also registered a half-maximal cytotoxic concentration (CC50) at 4 days in data set [2] of more than 25 µM.
As to `Cn1cc2c(c1C(=O)Nc1ccnc(Cl)c1)OCC(C)(CO)NS2(=O)=O` (single isomer, unassigned) [Compound 204a, N-(2-chloro-4-pyridyl)-3-(hydroxymethyl)-3,7-dimethyl-1,1-dioxo-2,4-dihydropyrrolo[3,4-b][1,4,5]oxathiazepine-6-carboxamide], in data set [1] (setting [3]), the EC50 was more than 125 nM. The half-maximal cytotoxic concentration (CC50) at 4 days in data set [2] is more than 25 µM.
Take `Cc1cc(NC(=O)c2c3c(cn2C)S(=O)(=O)N[C@@H](C(O)C2CC2)CO3)ccc1F` (single isomer, unassigned) [Compound 206a, 3-[cyclopropyl(hydroxy)methyl]-N-(4-fluoro-3-methyl-phenyl)-7-methyl-1,1-dioxo-3,4-dihydro-2H-pyrrolo[3,4-b][1,4,5]oxathiazepine-6-carboxamide]: in data set [1] (setting [3]), the EC50 was determined as 13 nM. In data set [2], this molecule displayed a cytotoxic concentration (CC50) at 4 days of more than 25 µM.
As for `Cn1cc2c(c1C(=O)Nc1ccc(F)c(Cl)c1)OC[C@H](C(O)C1CC1)NS2(=O)=O` (single isomer, unassigned) [Compound 207a, N-(3-chloro-4-fluoro-phenyl)-3-[cyclopropyl(hydroxy)methyl]-7-methyl-1,1-dioxo-3,4-dihydro-2H-pyrrolo[3,4-b][1,4,5]oxathiazepine-6-carboxamide], the concentration giving a half-maximal response (EC50) in data set [1] (setting [3]) is 8 nM. Also, the CC50 at 4 days in data set [2] is more than 25 µM.
On to `Cn1cc2c(c1C(=O)Nc1cc(F)c(F)c(F)c1)OC[C@H](C(O)C1CC1)NS2(=O)=O` (single isomer, unassigned) [Compound 208a, 3-[cyclopropyl(hydroxy)methyl]-7-methyl-1,1-dioxo-N-(3,4,5-trifluorophenyl)-3,4-dihydro-2H-pyrrolo[3,4-b][1,4,5]oxathiazepine-6-carboxamide], for which the EC50 in data set [1] (setting [3]) is 8 nM. Besides, the CC50 at 4 days in data set [2] was more than 25 µM.
Take `Cc1cc(CC2(C)COc3c(cn(C)c3C(=O)Nc3ccnc(C(F)F)c3)S(=O)(=O)N2)no1` (single isomer, unassigned) [Compound 209a, N-[2-(difluoromethyl)-4-pyridyl]-3,7-dimethyl-3-[(5-methylisoxazol-3-yl)methyl]-1,1-dioxo-2,4-dihydropyrrolo[3,4-b][1,4,5]oxathiazepine-6-carboxamide]: the half-maximal effective concentration (EC50) in data set [1] turned out to be 60 nM. This molecule returned a CC50 at 4 days in data set [2] of more than 25 µM.
`Cn1cc2c(c1C(=O)Nc1ccc(F)c(C#N)c1)OCC(C)(CO)NS2(=O)=O` (single isomer, unassigned) [Compound 210a, N-(3-cyano-4-fluoro-phenyl)-3-(hydroxymethyl)-3,7-dimethyl-1,1-dioxo-2,4-dihydropyrrolo[3,4-b][1,4,5]oxathiazepine-6-carboxamide]: the 50% effective concentration (EC50) in data set [1] (setting [3]) was 37 nM. In data set [2], this molecule came in with a CC50 at 4 days of more than 25 µM.
Turning to `Cc1cc(CC2(C)COc3c(cn(C)c3C(=O)Nc3ccnc(Cl)c3)S(=O)(=O)N2)no1` (single isomer, unassigned) [Compound 213a, N-(2-chloro-4-pyridyl)-3,7-dimethyl-3-[(5-methylisoxazol-3-yl)methyl]-1,1-dioxo-2,4-dihydropyrrolo[3,4-b][1,4,5]oxathiazepine-6-carboxamide], the EC50 in data set [1] was found to be 48 nM. The molecule further gave a CC50 at 4 days in data set [2] of more than 25 µM.
In the same order, the values of `Cn1cc2c(c1C(=O)Nc1cc(F)c(F)c(F)c1)OCC(C)(CO)NS2(=O)=O` (single isomer, unassigned) [Compound 214a, 3-(hydroxymethyl)-3,7-dimethyl-1,1-dioxo-N-(3,4,5-trifluorophenyl)-2,4-dihydropyrrolo[3,4-b][1,4,5]oxathiazepine-6-carboxamide] are 120 nM and more than 25 µM.
